From EP2589383A1 (Max-Planck-Gesellschaft zur Förderung der Wissenschaften …, priority 2011, dated 2013)

Biological target: T1, FLAG-mTOR (Homo sapiens, UniProt P42345)
T1 construct: expressed in transfected cells; host or cells: HEK-293
Experiment: Co-immunoprecipitation of FLAG-mTOR and endogenous FKBPs in HEK-293 cells
Type: cell-based
Conditions: overexpressed mTOR, 25 nM, 30 minutes prior to lysis
Method: Next mammalian cells were analyzed for a rapamycin-mediated interaction of mTOR and FKBPs. Co-Immunoprecipitation experiments were performed. In detail, the mammalian expression vector pcDNA-3, containing a FLAG-tagged mTOR cDNA sequence, was introduced into HEK-293 cells by standard Lipofectamine transfection. After 48 h, cells were washed twice with TBS and lysed in lysis buffer (40 mM Hepes, pH 7.5; 120 mM NaCl; 1 mM EDTA; 10 mM pyrophosphate; 10 mM glycerophosphate; 0.5 mM orthovanadate; 50 mM NaF; 0.3% (w/v) CHAPS / 1% (v/v) Triton-100; 1% (v/v) protease inhibitor mix) by shaking at 1000 rpm at 4°C for 20 minutes. After 20 minutes of centrifugation at 14.000 rpm and 4°C, the supernatant was collected, and total protein was determined by Bradford Assay. […] Beads were pelleted and washed 4 times with lysis buffer. Finally, beads were directly boiled after addition of an equal amount of SDS sample buffer for 5 minutes. Extracts were subjected to SDS-PAGE and immunoblotting.

- interaction of mTOR with endogenous FKBP12, FKBP51 and FKBP52 (co-precipitation): No interaction was observed
Compound: C=CC[C@@H]1/C=C(\C)C[C@H](C)C[C@H](OC)[C@H]2O[C@@](O)(C(=O)C(=O)N3CCCC[C@H]3C(=O)O[C@H](/C(C)=C/[C@@H]3CC[C@@H](O)[C@H](OC)C3)[C@H](C)[C@@H](O)CC1=O)[C@H](C)C[C@@H]2OC [Tacrolimus]
